Measurements as given in a melting point compilation (Tetko et al.; mined from patent text by program, amines drawn as free bases though some values may be those of a salt).

Row | SMILES | melting point
1 | CN1CC[C@@H](c2c(O)cc(O)c3c(=O)cc(-c4cc(O)ccc4Cl)oc23)[C@@H]1CO | 220 to 221 °C
2 | O=C1NC(=O)C(CC#Cc2ccc(Cl)cc2)(Sc2ccc(Cl)cc2)S1 (stereo not given) | 144 to 146 °C
3 | COc1ccc(-c2nc(C(N)=O)oc2-c2ccc(OC)cc2)cc1 | 133 to 135 °C
4 | OC1CSC(Oc2cccc(-c3ccncc3Cl)c2)C(O)C1O (stereo not given) | 158 to 161 °C
5 | ON=C1C[C@H]2CC=CC[C@H]2C1 | 100 to 103 °C
6 | COc1cc(-c2cccc([N+](=O)[O-])c2)ccc1N | 167 to 168 °C
7 | CC(C)=CCOC(=O)c1cnn(-c2c(Cl)cc(Cl)cc2Cl)c1N | 102 to 105 °C
8 | CN1Cc2cncn2-c2ccccc2C1=O | 212 to 213 °C
9 | O=[N+]([O-])c1cc(C(F)(F)F)cc([N+](=O)[O-])c1Nc1ncc(Cl)cc1Cl | 85 to 87 °C
10 | COc1cc(OC)c(-c2ccccc2)nn1 | 53 to 54 °C
11 | N#Cc1ccc(F)c(C2=Nc3ccc(-c4ccccc4F)cc3NC(=O)C2)c1 | 239 °C
12 | COc1ccc2nc3c(cc2c1)c(C#N)nn3C | 190 to 191 °C
13 | CCNC(=O)c1cc([N+](=O)[O-])ccc1Oc1cncc(Cl)c1 | 165 to 167 °C
14 | COC(=O)CCC(C)C1CCC2C3=CC=C4C(C)(C)C(O)CCC4(C)C3CCC21C (stereo not given) | 124 to 128 °C
15 | O=C(O)CCCc1ccc(F)cc1F | 45 to 47 °C
16 | O=C(O)C=Cc1ccc(Oc2c(-c3ccc(O)cc3)ccc3cc(O)ccc23)cc1 | 150 to 153 °C
17 | CSc1nc(F)cc(F)n1 | 31 to 32 °C
18 | COc1cc(C(F)(F)F)cc(OC)c1-c1ccc(C[C@H](NC(=O)c2c(Cl)cccc2Cl)C(=O)O)cc1 | 231 to 232 °C
19 | COc1cc(N(C)C)ccc1-c1nc2c(N[C@H]3[C@@H](C(N)=O)[C@@H]4C=C[C@H]3C4)ccnc2[nH]1 | 185 to 190 °C
20 | O=C1c2ccncc2C(=O)c2c(F)ccc(F)c21 | 197 to 199 °C
21 | O=c1[nH]c(=O)n(C2CC2)c2c(OC(F)F)c(F)ccc12 | 215 to 221 °C

Row | SMILES | melting point
22 | COc1cc2c(-c3cc4cc(F)cnc4[nH]3)cn(CCN3CCOCC3)c2cc1OC | 205 to 210 °C
23 | CCN(CC)c1c(Cl)cc(C(O)CNC(C)(C)C)cc1Cl (stereo not given) | 93 to 96 °C
24 | C[C@]12CCC(=O)N[C@@H]1CCc1cc(-c3nccs3)ccc12 | 206 to 207 °C
25 | Cc1ccc(S(=O)(=O)NC(=O)C2C(=O)CC(C(C)C)CC2=O)cc1 (stereo not given) | 106 to 108 °C
26 | CCOC(=O)c1cn(Nc2ccc(F)cc2F)c2nc(Cl)c(F)cc2c1=O | 210 to 212 °C
27 | CCCCCS(=O)(=O)NC(=O)/C=C/c1c(C)cc(C)n1Cc1ccc(Cl)cc1Cl | 170 to 171 °C
28 | CS(=O)(=O)c1ccc2ncn(/C=C/C(=O)O)c(=O)c2c1 | 284 to 290 °C
29 | Cc1nnc(-c2ccccc2OCC2CO2)o1 (stereo not given) | 38 to 40 °C
30 | CC1(C)NC(=O)N(Cc2ccccc2)C1=O | 101 to 104 °C
31 | CC(=O)NC(C=CCP(=O)(O)O)C(=O)O (stereo not given) | 155 °C
32 | COc1cc(C(C)=O)ccc1OCCN1C2CCC1CC(c1n[nH]c3ccccc13)C2 (stereo not given) | 154 to 155 °C
33 | Cc1cc(Br)ccc1N1C(=O)c2ccc(Cl)cc2C1=O | 210 to 212 °C
34 | Cn1cncc1C(O)(c1ccc(Cl)cc1)c1ccc2c(c1)C(c1cccc(Cl)c1)Nc1nnnn1-2 (stereo not given) | 212 °C
35 | O=C(O)/C=C\C=C(c1ccccc1)c1ccccc1 | 175 to 176 °C
36 | CC1=C(C2C=CN(C(=O)OCC(Cl)(Cl)Cl)C=C2)SC(C)C(=O)N1 (stereo not given) | 140 to 142 °C
37 | CC1(C)CC(=NO)CC(=NO)C1C#N (stereo not given) | 139 to 140 °C
38 | COc1cc2c(cc1O)CC(C)(C)NC2 | 170 to 173 °C
39 | CCCC(CCC)n1c(CC)nc2c1C(=O)N(C)CN2c1ccc(Cl)cc1Cl | 117 to 118 °C
40 | O=C1C2=C(CCCC2)C(=O)N1c1cc(OC2CCCC2)c(Cl)cc1F | 69 to 75.2 °C
41 | O=S1(=O)CS(=O)(=O)OCO1 | 146 °C
42 | C#Cc1cnc2sc(SCCCCCCC)nn2c1=O | 140 to 142 °C

Row | SMILES | melting point
43 | CCOC(Cc1ccc(OCCCc2nc(-c3ccc(C(F)(F)F)cc3)oc2C)c2ccsc12)C(=O)O (stereo not given) | 112 to 114 °C
44 | CC(C)(C)OC(=O)N1CCCC(Nc2cc(-c3ccc(F)c(NC(=O)c4cnc(C(C)(C)C)cn4)c3)n[nH]c2=O)C1 (stereo not given) | 120 to 121 °C
45 | BrCCCCCCOc1ccc(C2c3ccc(OCc4ccccc4)cc3OCC2c2ccccc2)cc1 (stereo not given) | 96.2 to 96.7 °C
46 | Cn1cc(S(=O)(=O)Cl)c(=O)c2ccc(C(F)(F)F)cc21 | 262 to 265 °C
47 | O=C1CCC(c2ccccc2)(c2ccccc2)C2CN(C(Cc3ccccc3)=NCc3ccco3)CC12 (stereo not given) | 128 °C
48 | CC(=O)OCC(C)(C)c1cc(OS(C)(=O)=O)ccc1OC(C)=O | 49 to 51 °C
49 | CN(C(=O)Nc1ccc2ccccc2c1)c1cccc(-c2ccc(CC(Nc3ccccc3C(=O)c3ccccc3)C(=O)O)cc2)c1 (stereo not given) | 125 °C
50 | CN1CCN(C(=O)c2cc(N)cc3c2OCCO3)CC1 | 170 °C
51 | Cc1cccc(Oc2c[nH]c(=O)[nH]c2=O)c1 | 291 to 295 °C
52 | CCC(Nc1ncnc2c1ncn2C1OC(CO)C(O)C1O)c1ccccc1 (stereo not given) | 73 to 84 °C
53 | Cn1ncc2c1CCCc1c-2cnn1C | 191 to 195 °C
54 | O=C(O)C1CCc2onc(-c3ccc(Cl)cc3)c2C1 (stereo not given) | 203 to 205 °C
55 | NC1=NC(c2ccc(OC(F)(F)F)cc2)(c2cccc(-c3cccnc3F)c2)C2=NCCCCCN12 (stereo not given) | 95 to 99 °C
56 | O=C(NCCN1CCN(C(c2ccc(F)cc2)c2ccccn2)CC1)C1CSC(c2cccnc2)N1 (stereo not given) | 144 to 146 °C
57 | Oc1ccc(-c2cccnc2)cc1 | 195 °C
58 | C=CCOc1ccc(-c2cc(=O)c3c(O)cc(OCOC)cc3o2)cc1 | 100 to 101 °C
59 | Fc1cccc(F)c1-c1nc(C(F)(F)F)n(-c2ccccc2C(F)(F)F)n1 | 90 °C
60 | O=C1NN=CC1=CNCCC(F)=C(F)F | 126 to 130 °C
61 | CCOC(=O)c1cnc2cc3c(cc2c1O)OCO3 | > 290 °C
62 | CC(=O)NC12Oc3c(C(C)C)cc(C(C)C)cc3C1(O)C(=O)c1ccccc12 (stereo not given) | 217 to 219 °C
63 | Cc1c(Cc2cccc(C(F)(F)F)c2)sc2c(-c3cc(C(=O)O)ccn3)cccc12 | 271 to 272 °C

The next lines start with the values.

Row | melting point | SMILES
64 | 173 to 174 °C | CSc1cc(-c2nc(=O)c3ccccc3s2)ccn1
65 | 104 to 106 °C | CN1CCCCC1CCc1ccccc1NC(=O)C#Cc1ccccc1 (stereo not given)
66 | 143 to 146 °C | CNCCCn1c(-c2ccc(OC)cc2)csc1=Nc1ccccc1
67 | 171 to 173 °C | CCOC(=O)C(C)c1ccc(-c2cn3cccnc3n2)cc1 (stereo not given)
68 | 97 to 98 °C | CCOC(=O)Cc1cccc2c(-c3ccccc3)onc12
69 | 120 °C | O=C(O)Cc1cc(C(=O)c2c(F)cccc2F)ccc1O
70 | 126 °C | CCC1CC(=O)N(Cc2cccc(NS(C)(=O)=O)c2)N=C1c1ccc(OC)c(OC)c1 (stereo not given)
71 | 94 to 95 °C | CCOC(OCC)C(N)=C(c1ccncc1N)c1ccccc1Cl
72 | 161 to 162 °C | CC(=O)Nc1cccc2ccc(O)cc12
73 | 80 to 81 °C | CCOC(=NS(=O)(=O)c1ccccc1OC(F)F)OCC
74 | 220 to 221 °C | O=C1c2ccccc2C2(O)Oc3cc4ccccc4cc3C12O (stereo not given)
75 | 123 °C | Brc1ccc2c(c1)COC(N[C@@H]1CCc3ccccc31)=N2
76 | 60 to 62 °C | CCN(CC)CCNC(=O)c1cnc2cc(I)ccc2n1
77 | 150 °C | CCNCCC(=O)N1c2ccccc2CCc2ccc(NC(=O)OCC)cc21
78 | 170 to 172 °C | CC(=O)Nc1cc(C(C)(C)C)nn1C(=NOS(=O)(=O)c1ccc(C)cc1)C(C)CN1C(=O)c2ccccc2C1=O (stereo not given)
79 | 144 to 145 °C | COC(=O)C(Cc1ccc(OC)c(C(=O)NCc2ccc(C(F)(F)F)cc2)c1)S(C)(=O)=O (stereo not given)
80 | 108 to 110 °C | CC(=O)c1c(-c2ccccc2)oc(-c2ccncc2)c1C
81 | 208 °C | CC(C)OC(=N)c1sc2ccccc2c1O
82 | 80 to 85 °C | Cn1c(CC#N)ccc1C(=O)c1ccccc1Cl

Row | melting point | SMILES
83 | 177 to 178 °C | CCOC(=O)CCCn1c(Nc2c(C)nn(C)c2C)nc2c(Cl)ccc(C(CC)CC)c21
84 | 177 to 179 °C | CCOC(=O)Nc1cc(C(C)C(O)(Cn2cncn2)c2ccc(F)cc2F)ccn1 (stereo not given)
85 | > 170 °C | COc1ccc2c(n1)C1(CO2)C(=O)N(CC(=O)Nc2ccccc2F)c2ccccc21 (stereo not given)
86 | 166 to 170 °C | O=C(O)CCC(=O)NNc1ccnc2c(NC(=O)c3c(Cl)cccc3Cl)cccc12
87 | 133 to 135 °C | Cc1cccc(NC(=O)NC2N=C(C3CCCCC3)c3ccccc3N(CC(=O)N3CC4CCC(CC4)C3)C2=O)c1 (racemic)
88 | 117 to 119 °C | CCOc1nn(-c2ccc(C(F)(F)F)cn2)cc1CCOc1ccc(CCC(=O)O)c(C)c1
89 | 193 to 194 °C | Cc1oc(-c2ccccc2)nc1CCOc1ccc(CCC2OC(=O)NC2=O)cc1 (stereo not given)
90 | 60 to 64 °C | CCOC(=O)c1cc2occc2nc1C(=O)OCC
91 | 111 to 112 °C | CCOC(=O)c1ccc(CCN(C)CCCC(C#N)(c2ccc(OC)c(OC)c2)C(C)C)cc1 (stereo not given)
92 | 107 to 108 °C | COC(=O)C1=Cc2cc(-c3ccc(OCCOC(C)C)cc3)ccc2N(C=O)CC1
93 | 114 to 115 °C | COC(=O)C(=O)c1ccc(OCCOc2ccc(OC)cc2)cc1
94 | 132 to 133 °C | O=C(O)CCN(CCCOc1ccc(C(=O)O)cc1)c1ccc(Cl)cc1
95 | 160 to 162 °C | CCNc1nc(-c2ccc(NC(=O)NCc3cccnc3)cc2)ccc1C(=O)NCCN(C(C)C)C(C)C
96 | 92 °C | CN1CCC(OC2c3ccc(Br)cc3CCn3cc(-c4ccccc4)nc32)CC1 (stereo not given)
97 | 122 to 125 °C | CCOC(=O)/C(=N\OC(C)(CC)C(=O)OC(C)(C)C)c1csc(NC(c2ccccc2)(c2ccccc2)c2ccccc2)n1 (stereo not given)
98 | 176 to 177 °C | Cc1nc(N2CCN(Cc3ccccc3)C2=O)sc1C(=O)NCc1cc(F)ccc1F
99 | 110 °C | CCC1=NNC(C)=C(C(=O)OC2CCCC2)C1c1cccc([N+](=O)[O-])c1 (stereo not given)
100 | 104 to 107 °C | CN(C)CC(=O)N1Cc2cccc3c2N(CC3)c2ccccc21
